# Measured values reported in patent publication US20230276836A1, “ORAL RETENTION COMPOSITION” (BIZEN CHEMICAL CO., LTD., priority 2020, published 2023).
# Test: Reactivity index (RI) between compound and carrageenan, viscosity change (Test Examples 2, 10)
# Assay type: physicochemical
# Conditions: uncoated compound, 10 ppm in 1 mass% carrageenan
# Experimental: The measurement device, measurement, control sample, and D0 were the same as those in Test Example 1. An aqueous methanol solution containing a polyphenolic compound was prepared by dissolving the polyphenolic compound in an aqueous methanol solution (methanol concentration: 50 mass%) and diluted to 1 mg/mL in a measuring cylinder. 200 µL of this solution was added to 20 g of the same solution as the control sample (aqueous solution of 1 mass% carrageenan) and homogeneously mixed. The obtained solution was determined to be an uncoated sample. Additionally, a solution was prepared in the same manner as the uncoated sample, except that a 50% (v/v) aqueous methanol solution was used instead of the aqueous methanol solution containing a polyphenolic compound and determined to be a methanol sample. Evaluation Method: The progress distance (mm) of the control sample is D0. The progress distance (mm) of the uncoated sample is D1. The progress distance (mm) of the methanol sample is D1M. The reactivity index (RI) between a polyphenolic compound and carrageenan was calculated according to the following formula.
# In this test system, the addition of an aqueous solution causes some decrease in viscosity due to a dilution effect. Thus, the determination method described above was used to detect the changes in viscosity due to the effect of a polyphenolic compound. Note that ±10% of the RI value was assumed to be within the margin of error (i.e., an RI value of 0.9 to 1.1 was assumed to be within the margin of error).
# In the same manner as in Test Example 2, epigallocatechin gallate (polyphenolic compound), syringin and eleutheroside E (lignan compounds), and spermidine (basic substance) were prepared, and the effects of these substances on the viscosity of carrageenan were measured, and their reactivity was evaluated. Note that spermidine was dissolved in purified water, and the prepared aqueous solution was used as a sample.
# [1] = Test Example 2, vs methanol sample, 1.1<RI = viscosity decreased
# [2] = Test Example 10, spermidine dissolved in purified water
SMILES,RI [1],RI [2]
"O=C(/C=C/c1ccc(O)c(O)c1)O[C@@H]1C[C@](O)(C(=O)O)C[C@@H](O)[C@H]1O [Comparative Example 3, Chlorogenic Acid]",4.1,–
"O=C(OC[C@H]1O[C@@H](OC(=O)c2cc(O)c(O)c(OC(=O)c3cc(O)c(O)c(O)c3)c2)[C@H](OC(=O)c2cc(O)c(O)c(OC(=O)c3cc(O)c(O)c(O)c3)c2)[C@@H](OC(=O)c2cc(O)c(O)c(OC(=O)c3cc(O)c(O)c(O)c3)c2)[C@@H]1OC(=O)c1cc(O)c(O)c(OC(=O)c2cc(O)c(O)c(O)c2)c1)c1cc(O)c(O)c(OC(=O)c2cc(O)c(O)c(O)c2)c1 [Comparative Example 4, Tannic Acid]",2.5,–
"O=c1c(O)c(-c2ccc(O)c(O)c2)oc2cc(O)cc(O)c12 [Comparative Example 5, Quercetin]",2.2,–
"Oc1ccc(C=Cc2cc(O)cc(O)c2)cc1 [Comparative Example 6, Resveratrol]",3.5,–
"O=C(O[C@@H]1Cc2c(O)cc(O)cc2O[C@@H]1c1cc(O)c(O)c(O)c1)c1cc(O)c(O)c(O)c1 [Comparative Example 12, Epigallocatechin Gallate]",–,4.4
"COc1cc(/C=C/CO)cc(OC)c1O[C@@H]1O[C@H](CO)[C@@H](O)[C@H](O)[C@H]1O [Comparative Example 13, Syringin]",–,2.3
"COc1cc([C@H]2OC[C@@H]3[C@@H]2CO[C@H]3c2cc(OC)c(O[C@@H]3O[C@H](CO)[C@@H](O)[C@H](O)[C@H]3O)c(OC)c2)cc(OC)c1O[C@@H]1O[C@H](CO)[C@@H](O)[C@H](O)[C@H]1O [Comparative Example 14, Eleutheroside E]",–,2.1
"NCCCCNCCCN [Comparative Example 15, Spermidine]",–,1.5
